From patent US9566250B2, “Artificial tissue constructs comprising alveolar cells and methods for using the same” (SANOFI PASTEUR VAXDESIGN CORPORATION, priority 2007, dated 2017)

How the values were obtained:
[1] = tested on: bilayer mucosal construct (primary human alveolar epithelial and endothelial cells); experiment: Cytokine production by bilayer alveolar mucosal construct (BioPlex/Luminex 22-plex); format: cell-based; settings: corticosteroid addition for 24 h vs control; FIG. 7
Description: Immunosuppressant effects on the cultured mucosal construct were tested by the addition of, for example, dexamethasone (0.5-0.1 μM) and hydrocortisone (5-10 μM) for 24 h. The effect of, for example, diesel particles (0.01-0.2 mg/mL) and urban dust (0.01-0.2 mg/mL) exposure was also studied in the alveolar tissue. NIST standards Diesel Particulate Matter (SRM 2975), and Urban Dust (SRM 1649a), containing both organic and inorganic components, were used as environmental irritants (FIG. 3). A BioPlex 22-Plex™ cytokine kit (Upstate) was used to quantify the cytokine levels in the collected media.
The cytokine profile of the bilayer construct prepared in a 0.33 cm^2 area Transwell™ cell culture device was compared with the alveolar epithelial cells cultured in T-25 flasks. Controls for each experiment with or without the various irritant treatments were also included in the experimental design.
The effects of immunosuppressant hormonal treatment (dexamethasone and hydrocortisone) and exposure to bacterial particles (E. coli and Staphylococcus aureus) on respiratory cells were examined by quantifying cytokine production by the mucosal tissue. […]
Using Luminex™ immunoassay technology, we simultaneously quantified the 22 cytokine and chemokines in the collected treatment media. […]

[2] = tested on: CYP1A1 and CYP2B1; experiment: Cytochrome P450 activity of bilayer construct after induction (7-ethoxy/7-pentoxy resorufin); format: cell-based, human; settings: 24 h exposure, then 7-ethoxy or 7-pentoxy resorufin for 30 min; FIG. 8
Description: The effects of polycyclic carcinogens on cytochrome P450 activity in the artificial tissue constructs was also analyzed. Cytochrome P450 proteins are involved in the metabolism of many exogenous and endogenous chemicals, including drugs, steroids, and toxins. Cytochrome P450 induction is indicative of chemical metabolism. Cellular P450 enzyme activity of CYP1A1 & CYP2B1 families was studied. The bilayer constructs were prepared from biopsy samples of three different patients.
The mucosal construct was exposed to either 3-methylcholantherine and β-nitrophenol (FIG. 8) for 24 h, followed by 7-ethoxy resorufin (5-15 μM) or 7-pentoxy resorufin (5-15 μM) addition (for 30 min) to quantify CYP 1A1 and CYP 2B1 activity, respectively. A β-glucuronidase and arylsulfatase enzyme cocktail was then added to the samples and they were incubated for 2 h at 37° C. Fluorometric absorbance was then measured. A standard curve was prepared using resorufin to quantify the P450 activity. 3-Methylcholanthere and β-nitrophenol are known environmental carcinogens found in cigarette smoke and in airborne industrial byproducts.

[3] = tested on: alveolar artificial tissue construct cells; experiment: WST-1 cellular (mitochondrial) activity of treated construct cells; format: cell-based, human; settings: stated in the WST-1 paragraph; 24-h treatments
Description: Cellular uptake of WST-1 was used to determine the mitochondrial activity of live cells. A spectroscopic reading of the collected/metabolized tetrazolium salt was performed to compare the cellular activity of hormone or bacterial particle treated cells to the non-treated control cells after 24-h treatments.

SMILES | cytokine production by the native cells of the bilayer mucosal construct [1] | p450 (CYP1A1 and CYP2B1) activation of construct cells [2] | activation of alveolar artificial tissue construct cells [3]
C[C@]12CCC(=O)C=C1CC[C@@H]1[C@@H]2[C@@H](O)C[C@@]2(C)[C@H]1CC[C@]2(O)C(=O)CO [hydrocortisone] | significant decrease | – | –
O=c1cc(-c2ccccc2)oc2ccc3ccccc3c12 [BNF, β-napthophenol] | – | less activated | less activated
Cc1ccc2cc3c(ccc4ccccc43)c3c2c1CC3 [3-methylcholanthere] | – | activated | activated
